In patent US20070254055A1, “Therapeutic Avenanthramide Compounds” (TRUSTEES OF TUFTS COLLEGE, priority 2003, published 2007):

What was measured:
[1] = test system: human aortic smooth muscle cells (HSMC); assay: FBS-induced [3H] thymidine incorporation in HSMC; assay type: cell-based
Excerpt: Synthetic Av-C was used in this experiment. […] The inhibitory effect of Avenanthramide was concentration-dependent.

[2] = test system: VCAM-1; assay: HASMC expression of VCAM-1; assay type: cell-based, human
[3] = test system: A10 SMC; assay: Cell cycle distribution by flow cytometry, A10 cells; assay type: cell-based, rat; details: 120 μM, 48 h
Protocol: At 50% confluence (exponentially growing phase), A10 cells were seeded into 100 mm culture dishes and were treated with different concentrations of Avn for 48 h. Cells were then harvested by trypsin/EDTA treatment, washed with PBS and fixed with 70% ethanol at 4° C. for 1 hr. Prior to analysis, cells were washed again with PBS and stained with 1.0 mL of propidium iodide (PI) solution containing 25 μg/mL PI and 10 μg/mL RNase in PBS at 4° C. for 30 min in the dark. Cell cycle distributions were then analyzed by flow cytometry using the fluorescence-activated cell sorting (FACS) analysis. To calculate percentage of cells in respective phases of the cell cycle the DNA content frequency histograms were deconvoluted. Based on the DNA content, the cell cycle can be distinguished from G1 to S and G2-M phase.

[4] = test system: p53; assay: p53 protein level Western blot, A10 cells; assay type: cell-based, rat
Protocol: (§1) Protein from 5×10^4 cells was subjected to electrophoresis on 7.5-10% SDS-polyacrylamide gels and electro-transferred to nirocellulose membrane. Nonspecific binding was blocked by incubating with Tris-buffered saline (TBS) [137 mM NaCl, and 15 mM Tris-HCl (pH 7.6)] containing 5% non-fat milk (w/v) for 1 h at room temperature and then probed with primary antibody against p53, p21, p27, cyclin D1 and pRb overnight. After washing in TBS-Tween 20 buffer (0.075% v/v), the membranes were incubated with horseradish peroxidase-conjugated anti-IgG antibody. Proteins bound to the primary antibodies were detected with ECL detection reagents.
Induction of the tumor suppressor p53 has been implicated in the control of cell growth of SMC, and some antioxidants in green tea or red wine can increase the p53 protein expression level. Therefore, the effect of substantially purified Avn-C treatment on p53 protein levels was explored. A10 cells were seeded into 100 mm Petri dishes and grown in 10% FBS culture medium until 70% confluence. Cells were either left untreated or treated with different concentrations of Avn (0-120 uM), and the cells were harvested after 24 h. Whole cell lysates were prepared and subjected to Western blot analysis for p53 and β-actin levels.

[5] = test system: p21cip1; assay: p21cip1 expression Western blot, A10 cells; assay type: cell-based, rat; details: 10% FBS, 20 h, highest level at 120 μM
Protocol: as §1
Cyclin-dependent kinase (cdk) inhibitors play important roles in cell cycle progression. P21cip1 is the main target of p53 medicated cell cycle inhibition. […] The effect of Avn on this CDK inhibitor p21cip1 protein expression was determined by Western blotting. A10 cells were synchronized by growning in FBS-free medium for 24 h. The cells were then stimulated with 10% FBS in the absence or presence of different concentrations of substantially purified Avn-C. After 20 h, total cell lysates were prepared and subjected to SDS-PAGE followed by Western blot analysis to detect p21cip and p27kip. β-Actin expression was used as loading control. […]

[6] = test system: p53; assay: Half life of p53 protein, cycloheximide chase, A10 cells; assay type: cell-based, rat
Protocol: At 80% confluence, A10 cells seeded into 100 mm culture dishes and were treated with different concentrations of Av (0, 40, 80 and 120 μM) for 24 h. Following Avn treatment, the total cell extracts were harvested with 2× protein sample buffer [0.14 M Tris/HCl (pH 6.8), 22.4% glycerol, 6% SDS, 0.02% […], and 10% β-mercaptoethanol] by scraping the cells. The genomic DNA is sheared by passing through a 21-gauge syringe several times. The homogenized cell lysates were boiled for 5 min and centriftiged at 12,000 rpm for 5 min. Protein half life studies are performed as described before. Briefly, cells were treated with Avn for 4-6 h. […] Cells were harvested in 2× protein sample buffer at 0, 30, 60 and 120 min after cycloheximide addition. Protein samples were analyzed by Western blot.
P53 protein level is mainly regulated at a posttranslational level, usually via control of protein stability. To determine whether increased protein stability might play a role in the increased p53 levels induced by Avn treatment observed in this study, the change in half life of p53 protein in Avn-treated and nontreated cells was explored. […] Whole cell extract was prepared at different time points (0, 30 and 60 min.) and p53 protein levels were measured by Western blot. […]

[7] = test system: U937 cells; assay: Hydrogen peroxide-induced ROS production in U937 cells (DCHF); assay type: cell-based, human; details: 18 h pretreatment
Protocol: Pretreatment of H2O2-stimulated U937 cells with 1, 5, and 10 μM of Avn reduced the ROS production by 22, 50, and 76%, respectively, indicating the inhibitory effect is dose-dependent.

O=C(/C=C/c1ccc(O)c(O)c1)Nc1ccc(O)cc1C(=O)O [Avn-C, Avenanthramide C]
inhibition of cell proliferation (serum-induced DNA synthesis) ([1]; 120 μM, 10% FBS, 24 h): more than 50% | IC50 ([1]; [3H] thymidine incorporation and cell number counting, read-out: IC50, serum-induced HASMC proliferation): ~50 µM | HASMC expression of VCAM-1 [2]: not affected | population of cells in G0/G1-phase ([3]; growing cells (control 49.7%)): 66.9% | population of cells in S-phase ([3]; growing cells (control about 40%)): 25.7% | increase of p53 protein level [4]: up to 3 fold | p53 protein levels ([4]; 0-120 uM, 24 h): dose-dependent increase | p21 expression level [5]: increased significantly | p53 protein remaining after 1 h of cycloheximide treatment ([6]; 80 uM for 6 h, then 15 μg/mL cycloheximide): More than half | half-life of p53 ([6]; A10 cells (untreated about 20 min)): more than 1 h | reduction of H2O2-induced ROS production ([7]; 1 μM): 22% | reduction of H2O2-induced ROS production ([7]; 5 μM): 50% | reduction of H2O2-induced ROS production ([7]; 10 μM): 76%
